Values joined by “and” are separate entries in the source; they are usually repeats but may differ in a detail not shown here. Identical values can stand only once.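 How tested: cells in 96-well plates exposed to compound for 48 hours at five concentrations. GI50: concentration for 50% inhibition of growth. The concentration for full growth arrest is given as TGI.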
What was measured:
Assay in all cases: DTP human tumour cell line panel, 48 h
SF-295 CNS = system: SF-295 CNS
A498 renal = system: A498 renal
SN12C renal = system: SN12C renal
NCI-H226 lung = system: NCI-H226 lung
NCI-H522 lung = system: NCI-H522 lung
MOLT-4 leukemia = system: MOLT-4 leukemia
IGROV1 ovarian = system: IGROV1 ovarian
BT-549 breast = system: BT-549 breast
HCC-2998 colon = system: HCC-2998 colon
SF-268 CNS = system: SF-268 CNS

| Compound | GI50 (SF-295 CNS) [µM] | TGI (SF-295 CNS) [µM] | GI50 (A498 renal) [nM] | TGI (A498 renal) [µM] | GI50 (SN12C renal) [nM] | TGI (SN12C renal) [µM] | GI50 (NCI-H226 lung) [µM] | TGI (NCI-H226 lung) | GI50 (NCI-H522 lung) [nM] | TGI (NCI-H522 lung) [nM] | GI50 (MOLT-4 leukemia) [µM] | TGI (MOLT-4 leukemia) [µM] | GI50 (IGROV1 ovarian) [nM] | TGI (IGROV1 ovarian) [µM] | GI50 (BT-549 breast) [nM] | TGI (BT-549 breast) [µM] | GI50 (HCC-2998 colon) [nM] | TGI (HCC-2998 colon) [µM] | GI50 (SF-268 CNS) [nM] | TGI (SF-268 CNS) |
| --- | --- | --- | --- | --- | --- | --- | --- | --- | --- | --- | --- | --- | --- | --- | --- | --- | --- | --- | --- | --- |
| CC[C@H](C)[C@H](NC(=O)C12CC(NC(C)=O)(C1)C2)C(=O)N(C)[C@H](C[C@@H](OC(C)=O)c1nc(C(=O)N[C@@H](Cc2ccccc2)C[C@H](C)C(=O)OC)cs1)C(C)C | 0.36 | > 5.25 | 234 | 1.58 | 937 | > 16.7 | > 7.53 | > 16.7 µM | 55.1 | 450 | 0.748 | > 16.7 | 502 | > 16.7 | 82.4 | 3.41 | 210 | > 16.7 | 809 | > 16.7 µM |
| COc1ccc(NC(=O)O[C@H]2[C@H](O[C@H]3[C@@H](O)COC(O[C@H]4C[C@H]5[C@@H]6CC=C7C[C@@H](O)CC[C@]7(C)[C@H]6CC[C@]5(C)[C@H]4[C@H](C)C(=O)CCC(C)C)[C@@H]3OC(C)=O)OC[C@@H](O)[C@@H]2O)cc1 (stereo not given in full) | < 0.01 | < 0.01 | < 10 | < 0.01 | 11400 | > 100 | 0.0725 | 17.3 µM | < 10 | 75.9 | < 0.01 | 0.34 | 33.1 | > 100 | < 10 | 11.3 | 566 | 32.7 | < 10 | 2.76 µM |
| CC[C@@]1(OC(=O)CN)C(=O)OCc2c1cc1n(c2=O)Cc2cc3c(N)c4c(cc3nc2-1)OCO4 | < 0.0001 | – | 2.26 | 0.0661 | < 0.1 | – | < 0.0001 | 0.109 µM and 0.0279 µM | 1.15 | 146 | < 0.0001 | 0.146 | 18 | 0.342 | 240 | – | 11.6 | 0.969 | < 0.1 | 0.125 µM and 0.183 µM |
| O=C1c2ccccc2C(=O)c2c(NC(=O)c3ccc4c5c(ncnc35)-c3ccccc3C4=O)cccc21 | – | 64 | – | > 100 | – | > 100 | – | > 100 µM | – | > 100000 | – | > 100 | – | > 100 | – | > 100 | – | > 100 | – | > 100 µM |
| CSc1ccc(C2=NN(C(=O)c3ccc(N)cc3)C(c3ccc(F)cc3)C2)cc1 (stereo not given) | 13.2 | 27.9 | 12900 | 27.3 | 2490 | 10.2 | 11 | 29.6 µM | 13800 | 30900 | 10.5 | 38.2 | 4370 | 25.5 | 12300 | 28.1 | 8790 | 21.8 | 3090 | 12.6 µM |
| CS(=O)(=O)c1nc(Cl)c(Cl)c(C#N)c1Cl | – | 35.1 | – | 35.3 | – | 5.9 | – | 24.6 µM | – | 1280 | – | 6.02 | – | 14.1 | – | 3.37 | – | 29.8 | – | 21.9 µM |
| COC(=O)Nc1nc2ccc(Sc3ccccc3)cc2[nH]1 | 0.152 | 19.9 | 140 | 6.4 | 524 | 25.7 | 0.291 | 1.7 µM | 113 | 587 | 0.262 | – | 441 | 18.3 | 1040 | 18.8 | 220 | 3.03 | 1440 | 26.9 µM |
| O=[N+]([O-])c1ccc(-c2ccccc2)c([As](=O)(O)O)c1 | 22.3 | > 100 | 16500 | 67 | 12700 | > 100 | 18.5 | 69.4 µM | 6920 | 21300 | 19.9 | > 100 | 8350 | 27.8 | 47200 | > 100 | 19400 | 45.5 | 9850 | 39.2 µM |
| N#CC(C#N)=Cc1ccc(-c2ccc(-c3nc4ccccc4o3)cc2)o1 | 30.1 | > 100 | 24900 | 70 | – | 16.5 | 21 | 99.7 µM | 60400 | > 100000 | 12.1 | > 100 | 65800 | > 100 | > 100000 | > 100 | 47100 | 96.4 | 52000 | > 100 µM |
